Measurements: PubChem BioAssay AID248 (DTP/NCI, 2004)
“And” between values parts separate entries of the source, which are not always exact repeats. Equal entries are not always repeated. Toxic doses and inconclusive results are not listed. Rule as the data show it: active = T/C of 150% or more; inactive = T/C below 125%.

Tested on: L1210 leukemia ip in BDF1 mice, survival T/C
Experiment: NCI In Vivo Anticancer Drug Screen. Data for tumor model L1210 Leukemia (intraperitoneal) in B6D2F1 (BDF1) mice
Details: endpoint: mean survival time, higher = longer survival
In short: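 Antitumor effect is assessed in tumor-bearing animals. Survival in the compound arm is compared with a vehicle-dosed control arm and expressed as their quotient.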

[1] = dose: 100.0 mg/kg/injection, schedule: Q01DX009 (ip), vehicle: saline
[2] = dose: 100.0 mg/kg/injection, schedule: Q04DX003 (ip), vehicle: saline
[3] = dose: 200.0 mg/kg/injection, schedule: Q01DX009 (ip), vehicle: saline
[4] = dose: 200.0 mg/kg/injection, schedule: Q04DX003 (ip), vehicle: saline
[5] = dose: 400.0 mg/kg/injection, schedule: Q04DX003 (ip), vehicle: saline
[6] = dose: 100.0 mg/kg/injection, schedule: Q01DX009 (ip), vehicle: Klucel (hydroxypropylcellulose) (HPC)
[7] = dose: 100.0 mg/kg/injection, schedule: Q04DX003 (ip), vehicle: Klucel (hydroxypropylcellulose) (HPC)
[8] = dose: 200.0 mg/kg/injection, schedule: Q01DX009 (ip), vehicle: Klucel (hydroxypropylcellulose) (HPC)
[9] = dose: 200.0 mg/kg/injection, schedule: Q04DX003 (ip), vehicle: Klucel (hydroxypropylcellulose) (HPC)
[10] = dose: 400.0 mg/kg/injection, schedule: Q01DX009 (ip), vehicle: Klucel (hydroxypropylcellulose) (HPC)
[11] = dose: 400.0 mg/kg/injection, schedule: Q04DX003 (ip), vehicle: Klucel (hydroxypropylcellulose) (HPC)
[12] = dose: 100.0 mg/kg/injection, schedule: Q04DX003 (ip), vehicle: saline with Tween-80
[13] = dose: 100.0 mg/kg/injection, schedule: Q01DX009 (ip), vehicle: saline with Tween-80
[14] = dose: 200.0 mg/kg/injection, schedule: Q01DX009 (ip), vehicle: saline with Tween-80

Measured: T/C

CC1(C)C2CCC(CN=C(N)CSS(=O)(=O)O)C1C2 (stereo not drawn)
inactive: dose: 3.13 mg/kg/injection, schedule: Q04DX002 (ip), vehicle: saline with Tween-80 91 % of control | dose: 6.25 mg/kg/injection, schedule: Q04DX002 (ip), vehicle: saline with Tween-80 100 % of control and 107 % of control | dose: 12.5 mg/kg/injection, schedule: Q04DX002 (ip), vehicle: saline with Tween-80 104 % of control | dose: 25.0 mg/kg/injection, schedule: Q04DX002 (ip), vehicle: saline with Tween-80 93 % of control

Nc1c(Br)cc2c(c1Br)Cc1cc(Br)ccc1-2
inactive: dose: 200.0 mg/kg/injection, schedule: Q01DX Z (ip), vehicle: saline 109 % of control | dose: 400.0 mg/kg/injection, schedule: Q01DX Z (ip), vehicle: saline 107 % of control | dose: 800.0 mg/kg/injection, schedule: Q01DX Z (ip), vehicle: saline 112 % of control | dose: 1600.0 mg/kg/injection, schedule: Q01DX Z (ip), vehicle: saline 112 % of control

C=C(C)C1(CCCC)C(=O)NC(=O)NC1=O
inactive: dose: 75.0 mg/kg/injection, schedule: Q01DX001 (ip), vehicle: saline 104 % of control and 102 % of control | dose: 150.0 mg/kg/injection, schedule: Q01DX001 (ip), vehicle: saline 107 % of control and 100 % of control | dose: 300.0 mg/kg/injection, schedule: Q01DX001 (ip), vehicle: saline 102 % of control

O=C1C(=O)C2=C(NCCC2)C(O)=C1Cl
inactive: dose: 100.0 mg/kg/injection, schedule: Q01DX001 (ip), vehicle: water 93 % of control | dose: 200.0 mg/kg/injection, schedule: Q01DX001 (ip), vehicle: water 95 % of control | dose: 400.0 mg/kg/injection, schedule: Q01DX001 (ip), vehicle: water 98 % of control

CC(C)(C)C1CCC(S(C)(=O)=O)C(Cl)C1 (stereo not drawn)
inactive: [1] 110 % of control | [2] 102 % of control | [3] 106 % of control | [4] 96 % of control | dose: 400.0 mg/kg/injection, schedule: Q01DX009 (ip), vehicle: saline 102 % of control | [5] 105 % of control

COc1ccc(N=C(N)N=C(N)N)cc1
inactive: dose: 50.0 mg/kg/injection, schedule: Q01DX001 (ip), vehicle: saline 111 % of control | dose: 100.0 mg/kg/injection, schedule: Q01DX001 (ip), vehicle: saline 104 % of control | [1] 91 % of control | dose: 200.0 mg/kg/injection, schedule: Q01DX001 (ip), vehicle: saline 95 % of control | [3] 92 % of control

Cc1ccc(N=C(c2ccccc2)c2ccc([N+](=O)[O-])cc2)cc1
inactive: [6] 98 % of control | [7] 105 % of control | [8] 101 % of control | [9] 93 % of control | [10] 103 % of control | [11] 102 % of control

Cc1ccc(C)c(CNC(=O)Nc2ccccc2Cl)c1
inactive: [6] 97 % of control | [8] 101 % of control

CCOc1ccccc1NC(=O)Nc1ccccc1C
inactive: [6] 102 % of control | [7] 101 % of control | [8] 100 % of control | [9] 105 % of control | [10] 94 % of control | [11] 103 % of control

CCOC(=O)c1ccc(N=CN(C)C)cc1
inactive: [7] 100 % of control | [9] 95 % of control | [11] 107 % of control

NC(CO)CO
inactive: dose: 100.0 mg/kg/injection, schedule: Q04DX002 (ip), vehicle: saline 105 % of control | dose: 200.0 mg/kg/injection, schedule: Q04DX002 (ip), vehicle: saline 108 % of control | dose: 400.0 mg/kg/injection, schedule: Q04DX002 (ip), vehicle: saline 105 % of control

O=NN(CCCl)C(=O)NN1CCCCCC1
inactive: dose: 15.0 mg/kg/injection, schedule: Q01DX001 (ip), vehicle: carboxymethylcellulose (CMC) 101 % of control | dose: 30.0 mg/kg/injection, schedule: Q01DX001 (ip), vehicle: carboxymethylcellulose (CMC) 101 % of control

CC1(C(=O)O)C2CCC(C2)C1C(=O)O (stereo not drawn)
inactive: [2] 107 % of control | [4] 102 % of control | [5] 105 % of control

O=C(O)CN1C(=O)C2C3CCC(C3)C2C1=O (stereo not drawn)
inactive: [12] 97 % of control | dose: 200.0 mg/kg/injection, schedule: Q04DX003 (ip), vehicle: saline with Tween-80 97 % of control | dose: 400.0 mg/kg/injection, schedule: Q04DX003 (ip), vehicle: saline with Tween-80 94 % of control

Cc1cccc(C)c1OC(=O)NCCCCCCNC(=O)Oc1c(C)cccc1C
inactive: [6] 102 % of control | [8] 92 % of control | [10] 92 % of control

COC(=O)C1c2ccccc2-c2ccccc21
inactive: dose: 50.0 mg/kg/injection, schedule: Q01DX009 (ip), vehicle: saline with Tween-80 97 % of control | [13] 107 % of control | [14] 96 % of control

COc1ccc2nonc2c1
inactive: dose: 100.0 mg/kg/injection, schedule: Q01DX001 (ip), vehicle: other 100 % of control | dose: 200.0 mg/kg/injection, schedule: Q01DX001 (ip), vehicle: other 110 % of control

O=[N+]([O-])c1ccc(C#CS(=O)(=O)c2ccccc2)cc1
inactive: dose: 50.0 mg/kg/injection, schedule: Q01DX009 (ip), vehicle: saline 104 % of control | [1] 96 % of control | [3] 96 % of control

c1ccc(-c2csc3cccc[n+]23)cc1
inactive: [12] 102 % of control

CCOc1ccc(/C=N/NC(=O)C(O)c2ccccc2)cc1OC (stereo not drawn)
inactive: [13] 97 % of control | [14] 92 % of control | dose: 400.0 mg/kg/injection, schedule: Q01DX009 (ip), vehicle: saline with Tween-80 90 % of control

CCOC(=N)c1cn(C2OC(CO)C(O)C2O)c2ncnc(N)c12 (stereo not drawn)
inactive: dose: 0.12 mg/kg/injection, schedule: Q01DX009 (ip), vehicle: saline with Tween-80 120 % of control | dose: 0.12 mg/kg/injection, schedule: Q01DX009 (ip), vehicle: saline 109 % of control | dose: 0.18 mg/kg/injection, schedule: Q01DX009 (ip), vehicle: saline with Tween-80 120 % of control | dose: 0.18 mg/kg/injection, schedule: Q01DX009 (ip), vehicle: saline 123 % of control | dose: 0.27 mg/kg/injection, schedule: Q01DX009 (ip), vehicle: saline with Tween-80 117 % of control | dose: 0.27 mg/kg/injection, schedule: Q01DX009 (ip), vehicle: saline 121 % of control | dose: 0.6 mg/kg/injection, schedule: Q01DX009 (ip), vehicle: saline 118 % of control | dose: 0.9 mg/kg/injection, schedule: Q01DX009 (ip), vehicle: saline 112 % of control | dose: 1.3 mg/kg/injection, schedule: Q01DX009 (ip), vehicle: saline 96 % of control

CC1(C)N=C(N)N=C(N)N1c1cccc(OCCOc2cccc(NC(=O)CBr)c2)c1
inactive: dose: 5.0 mg/kg/injection, schedule: Q01DX001 (ip), vehicle: saline 98 % of control | dose: 10.0 mg/kg/injection, schedule: Q01DX001 (ip), vehicle: saline 102 % of control | dose: 10.0 mg/kg/injection, schedule: Q01DX009 (ip), vehicle: other 105 % of control | dose: 20.0 mg/kg/injection, schedule: Q01DX001 (ip), vehicle: saline 93 % of control | dose: 20.0 mg/kg/injection, schedule: Q01DX009 (ip), vehicle: other 98 % of control | dose: 40.0 mg/kg/injection, schedule: Q01DX001 (ip), vehicle: saline 96 % of control
